The values below come from US9856511B2, “Protease deubiquitinating inhibitor screening” (priority 2011, dated 2018).

The subject of assay [1] is HCT-116 Bcl-2+ colon carcinoma. Put plainly: Disease free survival of nude mice challenged with HCT-116 Bcl-2+ cells. To be noted: 5 mg/kg 4-5 times weekly for 3 weeks; log-rank P=0.0136. The assay is classed as in vivo. As for the experimental part: Animal experiments were conducted in full accordance with Swedish governmental statutory regulations on animal welfare under permission from local ethical committees. Animals were housed at a max of five per cage and provided with sterile water and food ad libitum. All mice were monitored and weighed daily. For the head and neck carcinoma model a 100-μl cell suspension containing 1×10^6 FaDu cells was injected subcutaneously into the right rear flank of the animals. After injection, tumor growth was measured daily with calipers and the tumor volume calculated by the formula […]. When tumors had grown to a size of approximately 200 mm^3 (Day 0) mice were randomized to receive either vehicle (n=10) or b-AP15 5 mg/kg^−1 by subcutaneous injection s.c. (n=15) daily. […] Nineteen days after malignant cell injection all of the mice were killed and histopathological manifestations of liver, ovary (target organs for this model of tumor) were evaluated and compared between groups. […]
SCID mice bearing FaDu human tumor xenografts were randomized at tumor take (200 mm^3) and treated by daily subcutaneous injection with either vehicle (n=10) or 5 mg kg^−1 b-AP15 (n=15) for 10 days. […] Mice were treated with vehicle (n=6) or 5 mg kg^−1 b-AP15 (n=6) 4-5 times weekly for 3 weeks and monitored for tumor onset (log-rank, P=0.0136, hazard ratio=7.9). […]

Assay [2] relates to non-proteasomal DUBs (UCH-L1, UCH-L3, USP2CD, USP7CD, USP8CD, BAP1). Put plainly: Recombinant non-proteasomal DUBs with ubiquitin-AMC, % activity. It counts as biochemical. As for the experimental part: In vitro proteasome activity assays using 20S CP (2 nM) (Boston Biochem) were performed at 37° C. in 100-μl reaction buffer (25 mM Hepes, 0.5 mM EDTA, 0.03% SDS). Samples were incubated for 10 min with indicated compound followed by addition of 10 μM Suc-LLVY-AMC, Z-LLE-AMC or Boc-LRR-AMC for the detection of chymotrypsin-like, caspase-like and trypsin-like activity respectively. For DUB inhibition assays 19S RP (5 nM), 26S (5 nM) UCH-L1 (5 nM), UCH-L3 (0.3 nM), USP2CD (5 nM) USP7CD (5 nM) USP8CD (5 nM) and BAP1 (5 nM) were incubated with b-AP15 followed by addition of ubiquitin-AMC (1000 nM). Fluorescence was monitored using Wallac Multilabel counter or Tecan Infinite M1000 equipped with 360 nm excitation and 460 nm emission filters. Substrate overlay assays. Native gel electrophoresis was performed as described (41). In brief 4 μg of purified 26S proteasome (Boston Biochem) was mixed with 10 or 50 μM b-AP15 and incubated at 37° C. for 10 min. Samples were resolved on 4% non-denaturing PAGE. Gels were submerged in assay buffer (20 mM Tris-HCL, 5 mM MgCl2, 1 mM ATP, 0.1 mM Suc-LLVY-AMC) and proteasomes were visualized under UV illumination.
HCT-116 cells were treated for 3 h with b-AP15 (1 μM) and the proteasomes were affinity purified (FIG. 12a). […] Recombinant non-proteosomal DUBs were treated with b-AP15 and % activity determined. […]

Consider `C=CC(=O)N1C/C(=C\c2ccc([N+](=O)[O-])cc2)C(=O)/C(=C/c2ccc([N+](=O)[O-])cc2)C1` [b-AP15], for which the “disease free survival (tumor onset), hazard ratio” value in assay [1] worked out at 7.9. Also, the “inhibition of recombinant non-proteasomal DUBs” value in assay [2] is “does not inhibit non-proteasomal DUBs”.
